Results as given in US9657014B2, “Substituted 1,6-naphthyridines” (Hoffmann-La Roche Inc., priority 2012, dated 2017).

System: human embryonic stem cell derived neural stem cells (NSCs)
Test: Neural stem cell proliferation assay (neurogenesis assay)
Format: cell-based
Conditions: concentration at which 150% activity of control (100%) is reached, ATP levels (CellTiterGlo) after 4 days incubation; for EC (150% of control): Homo sapiens, Neural stem cell, 96 h
Summary of the method: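 NSCs derived from human ES cells by dual SMAD inhibition, seeded on polyornithin/laminin, dosed 4 h later (11 points, 8 μM to 8 nM). After 4 days at 37° C, ATP luminescence read; response = compound/medium control ×100, EC150 = concentration giving 150% of control.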

SMILES	EC (150% of control) (Table 1, novel compounds) [µM]	further results
NC(=O)c1ccc2cncc(-c3cccc(N4CCOCC4)c3)c2n1 [Example 93, 8-(3-Morpholinophenyl)-1,6-naphthyridine-2-carboxamide]	0.21	
CCCCCCC(=O)NCc1ccc(-c2cncc3ccc(C(N)=O)nc23)cc1 [Example 149, 8-(4-(Heptanamidomethyl)phenyl)-1,6-naphthyridine-2-carboxamide]	0.07	
CS(=O)(=O)c1ccc(CNC(=O)c2ccc3cncc(-c4cccc(F)c4)c3n2)cc1 [Example 113, 8-(3-Fluorophenyl)-N-(4-(methylsulfonyl)benzyl)-1,6-naphthyridine-2-carboxamide]	0.17	
COCCNC(=O)c1ccc2cncc(-c3cccc(OC)c3)c2n1 [Example 3, N-(2-Methoxyethyl)-8-(3-methoxyphenyl)-1,6-naphthyridine-2-carboxamide]	0.26	
CC(NC(=O)c1ccc2cncc(-c3ccc(Cl)cc3Cl)c2n1)C(C)(C)O (centres unmarked) [Example 172, 8-(2,4-Dichlorophenyl)-N-(3-hydroxy-3-methylbutan-2-yl)-1,6-naphthyridine-2-carboxamide]	0.5	
CC(C)Cc1cncc2ccc(C(N)=O)nc12 [Example 136, 8-Isobutyl-1,6-naphthyridine-2-carboxamide]	0.04	
COc1ccc(-c2cncc3ccc(C(=O)NCc4ccccn4)nc23)cc1 [Example 23, 8-(4-Methoxyphenyl)-N-(pyridin-2-ylmethyl)-1,6-naphthyridine-2-carboxamide]	0.03	
COCc1cccc(-c2cncc3ccc(C(N)=O)nc23)c1 [Example 100, 8-(3-(Methoxymethyl)phenyl)-1,6-naphthyridine-2-carboxamide]	0.02	
O=C(NCC(F)(F)F)c1ccc2cncc(-c3cc(F)ccc3F)c2n1 [Example 128, 8-(2,5-Difluorophenyl)-N-(2,2,2-trifluoroethyl)-1,6-naphthyridine-2-carboxamide]	0.13	
O=C(NC1CCN(Cc2ccccc2)CC1)c1ccc2cncc(-c3ccccc3)c2n1 [Example 193, 8-Phenyl-[1,6]naphthyridine-2-carboxylic acid (1-benzyl-piperidin-4-yl)-amide]		EC (150% of control) (Table 2, known compounds): 1.9 µM
CC1(CNC(=O)c2ccc3cncc(-c4ccc(Cl)cc4)c3n2)CCC(=O)N1 (centres unmarked) [Example 141, 8-(4-Chlorophenyl)-N-((2-methyl-5-oxopyrrolidin-2-yl)methyl)-1,6-naphthyridine-2-carboxamide]		EC150 (Table 1, novel compounds): 0.01 µM
O=C(NCC(F)(F)F)c1ccc2cncc(-c3ccc(F)cc3F)c2n1 [Example 126, 8-(2,4-Difluorophenyl)-N-(2,2,2-trifluoroethyl)-1,6-naphthyridine-2-carboxamide]	0.06	
COc1cccc(-c2cncc3ccc(C(=O)NCc4ccncc4)nc23)c1 [Example 26, 8-(3-Methoxyphenyl)-N-(pyridin-4-ylmethyl)-1,6-naphthyridine-2-carboxamide]	0.28	
O=C(NCC(F)(F)F)c1ccc2cncc(-c3ccccc3F)c2n1 [Example 125, 8-(2-Fluorophenyl)-N-(2,2,2-trifluoroethyl)-1,6-naphthyridine-2-carboxamide]	0.04	
CC(C)Oc1ccc(-c2cncc3ccc(C(N)=O)nc23)cc1 [Example 105, 8-(4-Isopropoxyphenyl)-1,6-naphthyridine-2-carboxamide]	0.01	
COc1ccc(-c2cncc3ccc(C(N)=O)nc23)cc1 [Example 21, 8-(4-Methoxyphenyl)-1,6-naphthyridine-2-carboxamide]	0.01	
Cc1cc2cncc(-c3ccc(C#N)cc3)c2nc1C(N)=O [Example 155, 8-(4-Cyanophenyl)-3-methyl-1,6-naphthyridine-2-carboxamide]	0.7	
O=C(c1ccc2cncc(-c3ccc(Cl)cc3)c2n1)N1CCC(O)C1 (centres unmarked) [Example 75, (8-(4-Chlorophenyl)-1,6-naphthyridin-2-yl)(3-hydroxypyrrolidin-1-yl)methanone]	0.4	
Cc1cc2cncc(-c3ccc(F)cc3)c2nc1C(N)=O [Example 153, 8-(4-Fluorophenyl)-3-methyl-1,6-naphthyridine-2-carboxamide]	0.79	
COc1cccc(-c2cncc3ccc(C(N)=O)nc23)c1 [Example 143, 8-(3-Methoxyphenyl)-1,6-naphthyridine-2-carboxamide]	0.24	
COc1cccc(-c2cncc3ccc(C(=O)NCc4ccccc4)nc23)c1 [Example 11, N-Benzyl-8-(3-methoxyphenyl)-1,6-naphthyridine-2-carboxamide]	0.03	
Cn1nccc1-c1cncc2ccc(C(N)=O)nc12 [Example 99, 8-(1-Methyl-1H-pyrazol-5-yl)-1,6-naphthyridine-2-carboxamide]	2.2	

SMILES	EC (150% of control) (Table 1, novel compounds) [µM]	further results
CS(=O)(=O)c1ccc(CNC(=O)c2ccc3cncc(-c4ccc(Cl)cc4)c3n2)cc1 [Example 50, 8-(4-Chlorophenyl)-N-(4-(methylsulfonyl)benzyl)-1,6-naphthyridine-2-carboxamide]	0.32	
CC(NC(=O)c1ccc2cncc(-c3ccccc3F)c2n1)c1ccc(S(C)(=O)=O)cc1 (centres unmarked) [Example 108, 8-(2-Fluorophenyl)-N-(1-(4-(methylsulfonyl)phenyl)ethyl)-1,6-naphthyridine-2-carboxamide]	0.5	
COc1ccccc1-c1cncc2ccc(C(=O)NCCCn3ccnc3)nc12 [Example 39, N-(3-(1H-Imidazol-1-yl)propyl)-8-(2-methoxyphenyl)-1,6-naphthyridine-2-carboxamide]	0.74	
CS(=O)(=O)CCNC(=O)c1ccc2cncc(-c3ccc(Cl)cc3F)c2n1 [Example 139, 8-(4-Chloro-2-fluorophenyl)-N-(2-(methylsulfonyl)ethyl)-1,6-naphthyridine-2-carboxamide]	0.06	
COCCNC(=O)c1ccc2cncc(-c3ccccc3)c2n1 [Example 204, 8-Phenyl-[1,6]naphthyridine-2-carboxylic acid (2-methoxy-ethyl)-amide]		EC (150% of control) (Table 2, known compounds): 0.2 µM
N#Cc1ccc(-c2cncc3ccc(C(N)=O)nc23)cc1 [Example 85, 8-(4-Cyanophenyl)-1,6-naphthyridine-2-carboxamide]	0.05	
O=C(NCc1ccccc1)c1ccc2cncc(-c3cccnc3)c2n1 [Example 17, N-Benzyl-8-(pyridin-3-yl)-1,6-naphthyridine-2-carboxamide]	0.11	
NC(=O)c1ccc2cncc(-c3ccccc3Cl)c2n1 [Example 168, 8-(2-Chlorophenyl)-1,6-naphthyridine-2-carboxamide]	0.15	
CS(=O)(=O)c1ccc(CNC(=O)c2ccc3cncc(-c4cc(F)ccc4F)c3n2)cc1 [Example 116, 8-(2,5-Difluorophenyl)-N-(4-(methylsulfonyl)benzyl)-1,6-naphthyridine-2-carboxamide]	1.65	
O=C(NCCCn1ccnc1)c1ccc2cncc(-c3ccccc3Cl)c2n1 [Example 40, N-(3-(1H-Imidazol-1-yl)propyl)-8-(2-chlorophenyl)-1,6-naphthyridine-2-carboxamide]	0.69	
O=C(NCC(F)(F)F)c1ccc2cncc(-c3ccc(F)cc3)c2n1 [Example 124, 8-(4-Fluorophenyl)-N-(2,2,2-trifluoroethyl)-1,6-naphthyridine-2-carboxamide]	0.07	
CC(NC(=O)c1ccc2cncc(-c3ccccc3Cl)c2n1)C(C)(C)O (centres unmarked) [Example 171, 8-(2-Chlorophenyl)-N-(3-hydroxy-3-methylbutan-2-yl)-1,6-naphthyridine-2-carboxamide]	0.12	
O=C(c1ccc2cncc(-c3ccc(Cl)cc3)c2n1)N1CCNCC1 [Example 61, (8-(4-Chlorophenyl)-1,6-naphthyridin-2-yl)(piperazin-1-yl)methanone]	3.15	
O=C(c1ccc2cncc(-c3ccc(Cl)cc3)c2n1)N1CCOCC1 [Example 57, (8-(4-Chlorophenyl)-1,6-naphthyridin-2-yl)(morpholino)methanone]	0.17	
COc1ccc(-c2cncc3ccc(C(=O)NCc4ccc(C(F)(F)F)nc4)nc23)cc1 [Example 186, 8-(4-Methoxy-phenyl)-[1,6]naphthyridine-2-carboxylic acid (6-trifluoromethyl-pyridin-3-ylmethyl)-amide]		EC (150% of control) (Table 2, known compounds): 0.67 µM
COc1ccccc1-c1cncc2ccc(C(=O)NCc3ccncc3)nc12 [Example 27, 8-(2-Methoxyphenyl)-N-(pyridin-4-ylmethyl)-1,6-naphthyridine-2-carboxamide]	0.56	
NC(=O)c1ccc2cncc(-c3ccc(F)c(F)c3)c2n1 [Example 83, 8-(3,4-Difluorophenyl)-1,6-naphthyridine-2-carboxamide]	0.1	
Cc1ccc(-c2cncc3ccc(C(N)=O)nc23)cc1 [Example 80, 8-Tolyl-1,6-naphthyridine-2-carboxamide]	0.03	
O=C(c1ccc2cncc(-c3ccc(Cl)cc3)c2n1)N1CCS(=O)(=O)CC1 [Example 74, [8-(4-Chloro-phenyl)-[1,6]naphthyridin-2-yl]-(1,1-dioxo-thiomorpholin-4-yl)-methanone]	1.68	
O=C(NCc1ccccc1)c1ccc2cncc(-c3ccccc3)c2n1 [Example 191, 8-Phenyl-[1,6]naphthyridine-2-carboxylic acid benzylamide]		EC (150% of control) (Table 2, known compounds): 0.44 µM
CS(=O)(=O)c1cccc(-c2cncc3ccc(C(N)=O)nc23)c1 [Example 87, 8-(3-(Methylsulfonyl)phenyl)-1,6-naphthyridine-2-carboxamide]	0.79	
COc1ccccc1CNC(=O)c1ccc2cncc(-c3ccccc3)c2n1 [Example 194, 8-Phenyl-[1,6]naphthyridine-2-carboxylic acid 2-methoxy-benzylamide]		EC (150% of control) (Table 2, known compounds): 0.73 µM
